This note sets out measurements from ChEMBL document CHEMBL3991601, “The target landscape of clinical kinase drugs” (Science, 2017).

Among the targets are TGF-beta receptor type-2 (Homo sapiens, UniProt P37173); Midasin (Homo sapiens, UniProt Q9NU22); Aurora kinase B (Homo sapiens, UniProt Q96GD4).
Experiment [1] deals with cAMP-dependent protein kinase catalytic subunit gamma (Homo sapiens, UniProt P22612).
Experiment [2] concerns the target cAMP-dependent protein kinase catalytic subunit beta (Homo sapiens, UniProt P22694).
Experiment [3] addresses Ribosomal protein S6 kinase alpha-1 (Homo sapiens, UniProt Q15418).
Experiment [4] deals with MAP/microtubule affinity-regulating kinase 3 (Homo sapiens, UniProt P27448).
Sequence of MAP/microtubule affinity-regulating kinase 3 (P27448 whole entry): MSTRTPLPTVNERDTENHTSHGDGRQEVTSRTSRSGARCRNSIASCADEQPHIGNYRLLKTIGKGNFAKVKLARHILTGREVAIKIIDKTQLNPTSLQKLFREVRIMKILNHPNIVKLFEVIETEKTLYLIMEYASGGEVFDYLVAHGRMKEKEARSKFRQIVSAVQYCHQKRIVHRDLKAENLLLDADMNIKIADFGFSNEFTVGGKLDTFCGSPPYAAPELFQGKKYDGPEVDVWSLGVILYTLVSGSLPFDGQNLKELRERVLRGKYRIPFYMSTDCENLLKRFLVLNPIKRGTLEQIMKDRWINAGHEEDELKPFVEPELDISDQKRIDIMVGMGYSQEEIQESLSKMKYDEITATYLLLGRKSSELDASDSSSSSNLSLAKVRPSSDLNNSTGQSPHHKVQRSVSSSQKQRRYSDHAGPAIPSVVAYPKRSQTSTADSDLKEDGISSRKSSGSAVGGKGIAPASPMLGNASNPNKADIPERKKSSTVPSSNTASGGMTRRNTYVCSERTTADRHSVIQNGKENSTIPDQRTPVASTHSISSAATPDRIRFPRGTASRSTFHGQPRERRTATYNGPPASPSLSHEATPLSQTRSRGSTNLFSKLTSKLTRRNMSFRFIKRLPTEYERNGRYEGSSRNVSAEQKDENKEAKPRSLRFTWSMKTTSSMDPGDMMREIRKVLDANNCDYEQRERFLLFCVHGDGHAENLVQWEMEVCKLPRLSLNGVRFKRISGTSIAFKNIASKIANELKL
The target in experiment [5] is Tyrosine-protein kinase HCK (Homo sapiens, UniProt P08631).
Sequence of Tyrosine-protein kinase HCK (P08631 whole entry): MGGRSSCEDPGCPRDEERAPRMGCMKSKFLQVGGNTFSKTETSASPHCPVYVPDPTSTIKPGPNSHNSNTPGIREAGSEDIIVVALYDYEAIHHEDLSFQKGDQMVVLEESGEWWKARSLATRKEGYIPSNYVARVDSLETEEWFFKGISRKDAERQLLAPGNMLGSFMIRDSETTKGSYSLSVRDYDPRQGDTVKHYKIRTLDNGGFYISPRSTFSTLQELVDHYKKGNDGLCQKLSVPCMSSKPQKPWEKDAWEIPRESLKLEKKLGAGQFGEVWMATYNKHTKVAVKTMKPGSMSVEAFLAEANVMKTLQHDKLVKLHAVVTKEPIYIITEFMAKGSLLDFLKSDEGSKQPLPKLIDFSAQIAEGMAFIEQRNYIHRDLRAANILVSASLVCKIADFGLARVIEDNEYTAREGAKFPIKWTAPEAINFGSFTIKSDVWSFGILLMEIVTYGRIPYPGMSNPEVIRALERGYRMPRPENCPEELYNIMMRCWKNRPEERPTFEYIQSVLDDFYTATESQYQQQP
Experiment [6] deals with T1, Peroxisomal acyl-coenzyme A oxidase 1 (Homo sapiens, UniProt Q15067).
T1 sequence (Q15067 whole entry): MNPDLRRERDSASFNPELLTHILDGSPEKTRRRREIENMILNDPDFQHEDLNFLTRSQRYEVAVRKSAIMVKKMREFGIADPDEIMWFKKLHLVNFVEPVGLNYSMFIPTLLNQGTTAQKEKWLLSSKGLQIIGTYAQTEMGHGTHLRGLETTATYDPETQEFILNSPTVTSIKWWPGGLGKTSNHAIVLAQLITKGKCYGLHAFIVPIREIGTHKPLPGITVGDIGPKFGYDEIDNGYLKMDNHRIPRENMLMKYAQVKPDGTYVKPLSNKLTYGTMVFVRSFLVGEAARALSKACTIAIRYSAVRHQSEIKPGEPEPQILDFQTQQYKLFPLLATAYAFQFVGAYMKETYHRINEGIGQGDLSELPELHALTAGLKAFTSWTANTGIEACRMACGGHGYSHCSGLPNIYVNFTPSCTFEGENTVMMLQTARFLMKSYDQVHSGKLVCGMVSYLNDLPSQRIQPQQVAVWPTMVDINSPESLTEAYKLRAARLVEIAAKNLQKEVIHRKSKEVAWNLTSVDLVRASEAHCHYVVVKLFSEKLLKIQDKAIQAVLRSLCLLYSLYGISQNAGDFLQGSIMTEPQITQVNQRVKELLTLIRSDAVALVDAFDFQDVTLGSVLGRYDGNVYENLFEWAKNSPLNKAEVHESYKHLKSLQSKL

The target in a further experiment is T2, Activin receptor type-1B (Homo sapiens, UniProt P36896).
T2 sequence (P36896 whole entry): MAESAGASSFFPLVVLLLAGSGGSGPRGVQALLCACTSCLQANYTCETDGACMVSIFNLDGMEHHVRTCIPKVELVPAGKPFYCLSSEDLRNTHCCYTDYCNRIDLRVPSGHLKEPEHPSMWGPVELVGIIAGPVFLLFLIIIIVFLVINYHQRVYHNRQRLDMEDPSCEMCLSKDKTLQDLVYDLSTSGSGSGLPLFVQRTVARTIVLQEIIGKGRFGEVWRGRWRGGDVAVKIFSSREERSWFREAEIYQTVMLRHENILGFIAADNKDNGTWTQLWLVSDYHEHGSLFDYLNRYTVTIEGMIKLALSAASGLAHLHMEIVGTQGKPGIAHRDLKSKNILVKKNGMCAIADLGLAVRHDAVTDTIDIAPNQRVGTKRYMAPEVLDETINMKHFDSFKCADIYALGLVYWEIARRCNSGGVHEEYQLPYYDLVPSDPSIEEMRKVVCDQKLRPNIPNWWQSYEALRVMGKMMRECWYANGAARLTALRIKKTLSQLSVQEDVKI

For experiment [7], the target named is Mitogen-activated protein kinase 3 (Homo sapiens, UniProt P27361).
Sequence of Mitogen-activated protein kinase 3 (P27361 whole entry): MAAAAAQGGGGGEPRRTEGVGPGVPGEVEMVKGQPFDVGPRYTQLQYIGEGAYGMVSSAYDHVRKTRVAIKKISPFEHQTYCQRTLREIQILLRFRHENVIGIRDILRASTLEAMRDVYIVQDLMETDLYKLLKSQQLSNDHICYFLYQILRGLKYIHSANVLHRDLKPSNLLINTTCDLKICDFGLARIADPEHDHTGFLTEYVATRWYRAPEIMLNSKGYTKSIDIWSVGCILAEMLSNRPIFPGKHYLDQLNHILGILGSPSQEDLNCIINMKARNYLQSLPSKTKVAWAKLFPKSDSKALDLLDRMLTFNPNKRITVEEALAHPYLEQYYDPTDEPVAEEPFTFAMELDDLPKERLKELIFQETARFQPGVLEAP
In experiment [8] the target is MAP kinase-activated protein kinase 2 (Homo sapiens, UniProt P49137).
Sequence of MAP kinase-activated protein kinase 2 (P49137 whole entry): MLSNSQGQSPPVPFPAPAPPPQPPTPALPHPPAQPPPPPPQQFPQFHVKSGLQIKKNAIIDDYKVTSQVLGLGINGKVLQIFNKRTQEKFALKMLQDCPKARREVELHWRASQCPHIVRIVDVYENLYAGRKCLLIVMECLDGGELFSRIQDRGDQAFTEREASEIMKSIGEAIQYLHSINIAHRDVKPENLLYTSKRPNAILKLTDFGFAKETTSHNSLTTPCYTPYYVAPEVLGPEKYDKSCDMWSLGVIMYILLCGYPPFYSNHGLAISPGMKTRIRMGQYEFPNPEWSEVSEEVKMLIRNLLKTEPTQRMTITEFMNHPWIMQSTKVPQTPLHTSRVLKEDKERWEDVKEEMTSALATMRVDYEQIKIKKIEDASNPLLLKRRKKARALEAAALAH
Experiment [9] has as its target Glycogen synthase kinase-3 beta (Homo sapiens, UniProt P49841).
The target in another experiment is T3, Activin receptor type-1 (Homo sapiens, UniProt Q04771).
T3 sequence (Q04771 whole entry): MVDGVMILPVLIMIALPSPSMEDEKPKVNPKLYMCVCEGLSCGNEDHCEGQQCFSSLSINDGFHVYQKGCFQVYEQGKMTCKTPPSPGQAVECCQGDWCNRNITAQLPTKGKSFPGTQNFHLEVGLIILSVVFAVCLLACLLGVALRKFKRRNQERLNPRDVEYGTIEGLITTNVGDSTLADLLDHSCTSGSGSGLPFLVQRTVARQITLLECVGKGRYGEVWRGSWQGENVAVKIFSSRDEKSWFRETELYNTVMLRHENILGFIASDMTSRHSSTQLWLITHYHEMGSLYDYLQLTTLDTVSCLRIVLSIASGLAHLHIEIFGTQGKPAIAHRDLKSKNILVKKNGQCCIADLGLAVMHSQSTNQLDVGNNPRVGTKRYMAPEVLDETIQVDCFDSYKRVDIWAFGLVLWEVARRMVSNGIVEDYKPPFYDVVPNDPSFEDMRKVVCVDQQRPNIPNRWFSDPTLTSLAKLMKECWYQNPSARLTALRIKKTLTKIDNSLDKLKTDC

The source made the active and inactive calls. Rule as the data show it, for most assays here: actives have a measured Kd and inactives only a lower limit. Bounds are passed on as bounds.
Also: in the data inactive means no Kd found up to 30 µM.

Sequence of cAMP-dependent protein kinase catalytic subunit gamma (P22612 whole entry): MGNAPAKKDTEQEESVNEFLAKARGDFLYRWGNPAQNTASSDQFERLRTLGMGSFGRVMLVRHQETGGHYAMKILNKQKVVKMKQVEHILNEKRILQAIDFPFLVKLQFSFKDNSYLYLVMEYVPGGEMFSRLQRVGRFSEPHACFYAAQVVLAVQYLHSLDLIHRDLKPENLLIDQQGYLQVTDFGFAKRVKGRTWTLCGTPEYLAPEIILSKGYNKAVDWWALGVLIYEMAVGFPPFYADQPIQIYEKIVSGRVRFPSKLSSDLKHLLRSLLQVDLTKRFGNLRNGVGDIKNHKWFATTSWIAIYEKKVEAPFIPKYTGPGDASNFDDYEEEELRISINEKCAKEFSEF
Sequence of TGF-beta receptor type-2 (P37173 whole entry): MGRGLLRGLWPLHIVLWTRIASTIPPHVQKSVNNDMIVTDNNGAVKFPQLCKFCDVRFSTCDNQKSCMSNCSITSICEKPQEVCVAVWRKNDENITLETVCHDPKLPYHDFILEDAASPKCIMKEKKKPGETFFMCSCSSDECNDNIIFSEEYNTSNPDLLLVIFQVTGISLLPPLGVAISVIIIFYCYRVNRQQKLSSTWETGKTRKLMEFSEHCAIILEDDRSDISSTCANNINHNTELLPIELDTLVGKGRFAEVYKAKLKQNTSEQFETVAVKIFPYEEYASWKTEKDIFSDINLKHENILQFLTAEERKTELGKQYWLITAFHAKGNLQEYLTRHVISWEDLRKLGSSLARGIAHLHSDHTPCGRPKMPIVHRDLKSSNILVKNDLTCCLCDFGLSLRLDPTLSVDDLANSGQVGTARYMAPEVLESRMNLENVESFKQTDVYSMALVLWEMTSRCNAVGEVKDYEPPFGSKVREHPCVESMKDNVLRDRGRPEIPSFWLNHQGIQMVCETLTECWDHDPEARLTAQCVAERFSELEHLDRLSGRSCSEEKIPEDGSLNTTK
Sequence of Glycogen synthase kinase-3 beta (P49841 whole entry): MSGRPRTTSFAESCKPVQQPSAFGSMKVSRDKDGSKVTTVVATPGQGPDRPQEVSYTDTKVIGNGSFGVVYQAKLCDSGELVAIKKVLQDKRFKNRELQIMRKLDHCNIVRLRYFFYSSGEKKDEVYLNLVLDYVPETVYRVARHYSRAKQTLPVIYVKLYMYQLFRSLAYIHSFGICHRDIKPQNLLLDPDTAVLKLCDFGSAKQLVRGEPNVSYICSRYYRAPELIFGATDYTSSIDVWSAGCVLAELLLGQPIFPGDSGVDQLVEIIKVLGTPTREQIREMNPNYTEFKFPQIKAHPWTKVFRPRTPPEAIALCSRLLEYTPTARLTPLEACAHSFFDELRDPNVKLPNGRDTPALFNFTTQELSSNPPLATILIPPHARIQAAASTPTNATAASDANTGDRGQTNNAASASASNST
Sequence of Aurora kinase B (Q96GD4 whole entry): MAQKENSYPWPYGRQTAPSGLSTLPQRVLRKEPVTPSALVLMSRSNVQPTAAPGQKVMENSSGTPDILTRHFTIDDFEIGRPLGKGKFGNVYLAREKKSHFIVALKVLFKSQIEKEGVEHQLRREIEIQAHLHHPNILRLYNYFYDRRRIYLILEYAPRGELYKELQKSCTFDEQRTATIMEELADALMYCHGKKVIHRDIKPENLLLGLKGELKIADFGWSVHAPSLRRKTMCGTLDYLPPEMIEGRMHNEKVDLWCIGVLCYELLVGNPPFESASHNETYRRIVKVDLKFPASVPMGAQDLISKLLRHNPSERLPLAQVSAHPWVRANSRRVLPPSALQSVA
Sequence of Ribosomal protein S6 kinase alpha-1 (Q15418 whole entry): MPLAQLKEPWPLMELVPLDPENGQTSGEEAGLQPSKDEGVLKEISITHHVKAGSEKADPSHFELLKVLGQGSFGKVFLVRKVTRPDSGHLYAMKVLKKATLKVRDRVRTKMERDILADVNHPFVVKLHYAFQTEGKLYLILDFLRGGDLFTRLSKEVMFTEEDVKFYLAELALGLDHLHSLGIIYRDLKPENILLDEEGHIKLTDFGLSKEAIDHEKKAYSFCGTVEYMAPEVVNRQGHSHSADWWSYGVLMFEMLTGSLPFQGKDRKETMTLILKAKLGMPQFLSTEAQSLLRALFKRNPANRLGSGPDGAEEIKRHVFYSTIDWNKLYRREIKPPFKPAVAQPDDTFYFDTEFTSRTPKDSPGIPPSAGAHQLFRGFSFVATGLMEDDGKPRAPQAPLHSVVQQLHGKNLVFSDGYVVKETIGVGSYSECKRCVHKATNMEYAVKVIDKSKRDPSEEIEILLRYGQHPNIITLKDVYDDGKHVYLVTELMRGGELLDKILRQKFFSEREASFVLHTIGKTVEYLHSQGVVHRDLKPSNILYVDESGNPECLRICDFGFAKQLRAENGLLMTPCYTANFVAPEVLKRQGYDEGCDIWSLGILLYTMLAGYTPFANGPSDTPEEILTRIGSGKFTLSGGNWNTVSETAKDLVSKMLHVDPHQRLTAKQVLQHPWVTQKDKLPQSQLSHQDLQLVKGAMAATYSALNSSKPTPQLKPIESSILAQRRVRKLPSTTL

As to `CNC(=O)CN1CCC(Oc2cc3c(Nc4cccc(Cl)c4F)ncnc3cc2OC)CC1` [SAPITINIB], the Kd (in experiment [1]; on TGF-beta receptor type-2; at Midasin; in experiment [2]; in experiment [3]; in [4]) was > 30 µM (inactive) each time. Further, the Kd (in [5]; in [6]; on Activin receptor type-1B; in [7]; in experiment [8]; in experiment [9]) was > 30 µM (inactive) in each case. Besides, the Kd on Activin receptor type-1 and on Aurora kinase B was > 30 µM (inactive) throughout.
On to `O=C(c1ccc(F)c(F)c1Nc1ccc(I)cc1F)N1CC(O)([C@@H]2CCCCN2)C1` [COBIMETINIB], for which the Kd (in [1]; at TGF-beta receptor type-2; at Midasin; in experiment [2]; in [3]; in experiment [4]) was > 30 µM (inactive) each time. For the same compound, the Kd (in experiment [5]; in [6]; at Activin receptor type-1B; in experiment [7]; in experiment [8]; in experiment [9]) was > 30 µM (inactive) each time. In addition, the Kd on Activin receptor type-1 and at Aurora kinase B was > 30 µM (inactive) throughout.
Regarding `Cc1ccc(S(=O)(=O)Nc2nc3ccccc3nc2Nc2ccc3nsnc3c2)cc1`, the Kd (in [1]; at TGF-beta receptor type-2; on Midasin; in experiment [2]; in experiment [3]; in [4]) was > 30 µM (inactive) each time. Besides, the Kd (in experiment [5]; in experiment [6]; on Activin receptor type-1B; in experiment [7]; in experiment [8]; in [9]) was > 30 µM (inactive) each time. Further, the Kd at Activin receptor type-1 and at Aurora kinase B was > 30 µM (inactive) in each case.
On to `CCS(=O)(=O)N1CC(CC#N)(n2cc(-c3ncnc4[nH]ccc34)cn2)C1` [BARICITINIB], for which the Kd (in general, the constant that tells how readily two partners part at equilibrium) is > 30 µM (inactive) in [1]; > 30 µM (inactive) at TGF-beta receptor type-2; > 30 µM (inactive) at Midasin; > 30 µM (inactive) in [2]; > 30 µM (inactive) in experiment [3]; 0.104 µM (active) in [4]. The Kd (in experiment [5]; in experiment [6]; at Activin receptor type-1B; in experiment [7]; in experiment [8]; in [9]) was > 30 µM (inactive) each time. For the same compound, the Kd on Activin receptor type-1 and at Aurora kinase B was > 30 µM (inactive) throughout.
For `Cc1ccc(NC(=O)c2ccc(CN3CC[C@H](N(C)C)C3)c(C(F)(F)F)c2)cc1Nc1nccc(-c2cncnc2)n1` [BAFETINIB], the Kd (in experiment [1]; at TGF-beta receptor type-2; on Midasin; in [2]; in [3]; in experiment [4]) was > 30 µM (inactive) each time. Also, the Kd in [5] was > 30 µM (inactive); in [6] it was > 30 µM (inactive); at Activin receptor type-1B it was > 30 µM (inactive); in [7], > 30 µM (inactive); in [8] it was 0.304 µM (active); in [9], > 30 µM (inactive). The Kd at Activin receptor type-1 and on Aurora kinase B was > 30 µM (inactive) throughout.
On to `COc1ccc(-c2ccc3c(N4CCOC[C@@H]4C)nc(N4CCOC[C@@H]4C)nc3n2)cc1CO` [AZD-8055], for which the Kd (in [1]; at TGF-beta receptor type-2; at Midasin; in experiment [2]; in experiment [3]; in [4]) was > 30 µM (inactive) each time. Also, the Kd (in experiment [5]; in [6]; on Activin receptor type-1B; in [7]; in experiment [8]; in experiment [9]) was > 30 µM (inactive) throughout. Further, the Kd on Activin receptor type-1 and at Aurora kinase B was > 30 µM (inactive) each time.
As for `C1=C/COCc2cc(ccc2OCCN2CCCC2)Nc2nccc(n2)-c2cccc(c2)COC/1` [PACRITINIB], the Kd (in [1]; at TGF-beta receptor type-2; on Midasin; in experiment [2]; in [3]; in experiment [4]) was > 30 µM (inactive) throughout. The Kd (in [5]; in experiment [6]; on Activin receptor type-1B; in experiment [7]; in [8]; in [9]) was > 30 µM (inactive) each time. Moreover, the Kd at Activin receptor type-1 was 0.022 µM (active); on Aurora kinase B, 0.641 µM (active).
For `COc1cc(N2CCC(N3CCN(C)CC3)CC2)ccc1Nc1ncnc(Nc2ccccc2S(=O)(=O)C(C)C)n1` [ASP-3026], the Kd (in [1]; on TGF-beta receptor type-2; on Midasin; in experiment [2]; in experiment [3]; in experiment [4]) was > 30 µM (inactive) each time. For the same compound, the Kd in [5] was 1.25 µM (active); in experiment [6], > 30 µM (inactive); at Activin receptor type-1B, > 30 µM (inactive); in experiment [7], > 30 µM (inactive); in experiment [8] it was > 30 µM (inactive); in experiment [9], > 30 µM (inactive). Further, the figures for the Kd on Activin receptor type-1 and at Aurora kinase B were > 30 µM (inactive) and 0.1 µM (active), respectively.
With `CN1CCC(CNc2ccc3ncc(-c4cccc(OC(F)(F)F)c4)n3n2)CC1` [SGI-1776], the Kd (in experiment [1]; on TGF-beta receptor type-2; on Midasin; in [2]; in experiment [3]; in experiment [4]) was > 30 µM (inactive) throughout. The Kd (in experiment [5]; in experiment [6]; at Activin receptor type-1B; in [7]; in experiment [8]; in experiment [9]) was > 30 µM (inactive) throughout. Besides, the values for the Kd on Activin receptor type-1 and at Aurora kinase B were 0.458 µM (active) and > 30 µM (inactive), respectively.
